Key:
[1] = test system: Gr-1+CD115+ MDSCs; assay: Cytokine production by IFN-γ stimulated MDSCs (ELISA); format: cell-based, mouse; conditions: IFN-γ stimulation, 24 hours, FIG. 3A
Experimental: Sorted Gr-1+CD115+ MDSCs from tumor-bearing mice were stimulated with IFN-γ in the absence or presence of GA, SP600125, or both. Twenty-four hours after stimulation, culture supernatants were collected and the concentrations of IL-10, TGF-β, IL-6, and IL-23 were determined by ELISA (R&D Systems).
It was next determined whether GA, SP600125, or both exert an effect on cytokine production by MDSCs. Sorted Gr-1+CD115+ MDSCs from tumor-bearing mice were stimulated with IFN-γ in the absence or presence of GA, SP600125, or both. Twenty-four (24) hours after stimulation, culture supernatants were collected and the concentrations of IL-10, TGF-β, IL-6, and IL-23 were determined by ELISA (R&D Systems®). GA or SP600125 alone was capable of enhancing the secretion of IL-10 and TGF-β while decreasing IL-6 and IL-23 production by MDSCs in vitro (FIG. 3A).

[2] = test system: DSS-induced colitis; assay: DSS-induced colitis in vivo model; set-up: species or system C57BL/6 mice
Excerpt: In certain aspects, the invention is related to the treatment of IBDs. Mouse models of IBD are well known in the art, and may be used to model human IBDs. For example, dextran sodium sulfate (DSS) may be administered to mice to induce IBD. In this model, mice are fed with water containing 3.5% DSS from day 0 to day 11. Following treatment, mice develop colitis. The severity of colitis is quantified (assigned a clinical score) by assessing stool consistency, bleeding, and weight loss, which ranges from 0 (healthy) to 4 (maximal severity). Histologically, DSS produces submucosal erosions, ulceration, inflammatory cell infiltration and crypt abscess as well as epithelioglandular hyperplasia. […] [Kawada et al., 2007, World J. Gastroenterol. 13: 5581-5593; Okayasu et al., 1990, Gastroenterology 98:694-702]
For adoptive transfer of MDSCs, 5×10^6 purified MDSCs suspended in PBS were administered by intravenous infusion at day 0 and day 7.
Mice were left untreated or treated with sorted MDSCs (5×10^6 cells/mouse) alone or in combination with GA and/or SP600125 (Sigma-Aldrich), on the day of disease induction. […] The severity of colitis was quantitated as a clinical score by assessing stool consistency, bleeding, and weight loss, which ranges from 0 (healthy) to 4 (maximal severity). The clinical score (weight loss, stool consistency, and bleeding) of treated mice was assessed in a double-blind fashion.
On day 11 post-IBD induction, colon tissues from treated mice were removed, fixed in 3% formaldehyde, sectioned, and stained with H&E staining to determine the pathology score of colitis. To reflect the general condition of the mice, a disease activity index (DAI) was determined by an investigator blinded to the protocol by scoring the extent of body weight loss, stool guaiac positivity or gross bleeding, and stool consistency according to the method described in Murthy et al. (1993) “Treatment of Dextran Sulfate Sodium-Induced Murine Colitis by Intracolonic Cyclosporin,” Digest. […] Stool consistency and the degree of blood in stool were evaluated on the day when animals were killed. […]

[3] = test system: MLN T cells; assay: MLN cell proliferation assay from IBD mice; format: in vivo, mouse; conditions: +PHA, 72 hours, [3H]-thymidine, day 11, DSS-treated mice, FIG. 7
Experimental: On day 11 after IBD induction, mice were terminated, and MLN cells were isolated and cultured in the presence or absence of PHA. [3H]-thymidine was pulsed during the last 8 hours of 72-hour culture for the measurement of T cell proliferation.
To assess the proliferative capability of T cells from treated mice, on day 11 following IBD induction, splenocytes and […] lymph node (MLN) cells from treated mice were stimulated with (+PHA) or without PHA (˜) for 72 hours. [3H]-thymidine was pulsed during the last 8 hours of 72-hour culture. […] The percentage of Treg cells is defined as the percent cells that are stained positive for CD4, CD25, and intracellular Foxp3.

[4] = test system: TLR 2, 3, and 4 expression in MDSCs; conditions: microarray analysis
Excerpt: Five days later, cells were harvested and stained with anti-CD4-FITC+anti-CD25-APC+anti-Foxp3-PE or isotype controls followed by flow cytometry.

[5] = test system: CD115+ MDSCs; conditions: FIG. 9B
Experimental: IL-10 and IFN-γ levels in the supernatant were measured by ELISA.

[6] = test system: multiple sclerosis; conditions: GA alone, Johnson et al. (1995); cited from earlier work

## L-glutamic acid polymer with L-alanine, L-lysine and L-tyrosine, acetate (salt) [GA]
[1]
  IL-6 production by MDSCs: decreasing
  IL-23 production by MDSCs: decreasing
  secretion of IL-10 by MDSCs: enhancing
  secretion of TGF-β by MDSCs: enhancing
[2]; day 11, in comparison with naive healthy mice, FIG. 5C
  decrease in colonic length: 45%
[2]; scale 0-4, 3.5% DSS day 0 to 11, GA s.c., SP600125 i.p. daily, MDSCs 5×10^6 i.v. days 0 and 7, FIG. 5A
  IBD clinical score: did not significantly lower
[3]
  T-cell proliferation of MLN cells: lower level
[4]
  levels of TLR 2, 3, and 4 expression in MDSCs: significant reduction
[5]; 100 ng/mL LPS, 30 hours, ELISA
  IFN-γ production induced by LPS in MDSCs: significantly reduced
[5]; with LPS
  IL-10 production by MDSCs: favors IL-10 production
[6]
  efficacy for treating multiple sclerosis: only partially effective
